# Values of other authors as cited in patent US4486419A, “5,2',3',4',4",6"-Hexadeoxykanamycin and its 1-N-acylated derivative” (Zaidan Hojin Biseibutsu Kagaku Kenkyu Kai, priority 1982, dated 1984).
# System: dibekacin-resistant bacteria
# Conditions: background, U.S. Pat. No. 4,107,424; cited from earlier work
smiles,measurement,value
"NCC[C@H](O)C(=O)N[C@@H]1C[C@H](N)[C@@H](O[C@H]2O[C@H](CN)CC[C@H]2N)[C@H](O)[C@H]1O[C@H]1O[C@H](CO)[C@@H](O)[C@H](N)[C@H]1O [Habekacin, 1-N-[(S)-4-amino-2-hydroxybutyryl] dibekacin]",activity against dibekacin-resistant bacteria,active against dibekacin-resistant bacteria
